Read-outs that look alike come from different tables or passages of the source. No end group written: not given here.
How the values were obtained:
DRB1*0901 (DR9) = biological target: T1, DRB1*0901 (DR9) (Homo sapiens, UniProt P01903+P01911, A100R/A103E/D57H/D86V/F55Y/F60I/F76Y/I96F/K127E/L162R/M171V/P40D/Q125H/Q99R/R33Q/R42F/S133A/S66N/T210M/V115G/W38K/Y107V/Y59G/Y89S); experiment: biochemical; format: binding
T1 construct: Epstein-Barr virus (EBV) transformed homozygous cell lines were used as sources; endogenous in cells

DRB1*0405 (DR4w15) = biological target: T2, DRB1*0405 (DR4w15) (Homo sapiens, UniProt P01903+P01911, A100R/A169T/D86S/F76Y/I96L/K127E/L162R/M171V/N62H/P40V/Q125Y/R42H/S133A/S149N/S66Y/V115G/V209L/W38E); experiment: biochemical; format: binding
T2 construct: Epstein-Barr virus (EBV) transformed homozygous cell lines were used as sources; endogenous in cells; host or cells: KT3 (EBV-transformed homozygous B cell line)

DRB1*1501 (DR2w2b) = biological target: T3, DRB1*1501 (DR2w2b) (Homo sapiens, UniProt P01903+P01911); experiment: biochemical; format: binding
T3 construct: expressed in transfected cells; host or cells: transfected fibroblasts L466.1

DRB1*0301 (DR3w17) [1] = biological target: T4, DRB1*0301 (DR3w17) (Homo sapiens, UniProt P01903+P01911, A100K/A102G/A103R/A169T/F55Y/I96L/K41T/L162R/M171V/P40S/Q125H/Q178H/Q39Y/R42S/S66N/T106N/T262R/W38E/Y61H); conditions: read-out: Binding Capacity (IC 50% nM) Other Alleles DR3
DRB1*1302 (DR6w19) = biological target: T5, DRB1*1302 (DR6w19) (Homo sapiens, UniProt P01903+P01911, A100E/A169T/K41T/L162R/M171V/P40S/Q125H/Q178H/Q39Y/Q99D/R42S/S66N/T262R/V115G/W38E/Y61H); experiment: biochemical; format: binding
T5 construct: Epstein-Barr virus (EBV) transformed homozygous cell lines were used as sources; the source of Class II molecules the EBV transformed homozygous cell line H0301; endogenous in cells; host or cells: H0301 (EBV-transformed homozygous B cell line)

DRB1*0301 (DR3w17) [2] = biological target: T4, DRB1*0301 (DR3w17); experiment: biochemical; conditions: Binding Capacity (IC50% nM) DR3
DRB1*0802 (DR8w2) = biological target: T6, DRB1*0802 (DR8w2) (Homo sapiens, UniProt P01903+P01911, A100R/A103L/A169T/F76Y/H45Y/I96F/K41T/L162R/M171V/P40S/Q125H/Q178H/Q39Y/Q99D/R218S/R42G/S66Y/V115G/W38E); experiment: biochemical; format: binding
T6 construct: Epstein-Barr virus (EBV) transformed homozygous cell lines were used as sources; endogenous in cells; host or cells: OLL (EBV-transformed homozygous B cell line)

DRB1*0101 (DR1) = biological target: T7, DRB1*0101 (DR1) (Homo sapiens, UniProt P01903+P01911, A100R/D57E/F55L/F60I/F76Y/I96L/L162R/M171V/P40L/Q125E/R42F/V115G/Y59C); experiment: biochemical; format: binding
T7 construct: Epstein-Barr virus (EBV) transformed homozygous cell lines were used as sources; endogenous in cells; host or cells: LG2 (EBV-transformed homozygous B cell line)

DRB1*1101 (DR5w11) = biological target: T8, DRB1*1101 (DR5w11) (Homo sapiens, UniProt P01903+P01911, A100R/A169T/A87E/I96F/K41T/L162R/M171V/P40S/Q125H/Q178H/Q39Y/Q99D/R42S/S66Y/T262R/V115G/W38E); experiment: biochemical; format: binding
T8 construct: Epstein-Barr virus (EBV) transformed homozygous cell lines were used as sources; endogenous in cells; host or cells: SWEIG (EBV-transformed homozygous B cell line)
T8 sequence (P01903 26-254, other chains not shown): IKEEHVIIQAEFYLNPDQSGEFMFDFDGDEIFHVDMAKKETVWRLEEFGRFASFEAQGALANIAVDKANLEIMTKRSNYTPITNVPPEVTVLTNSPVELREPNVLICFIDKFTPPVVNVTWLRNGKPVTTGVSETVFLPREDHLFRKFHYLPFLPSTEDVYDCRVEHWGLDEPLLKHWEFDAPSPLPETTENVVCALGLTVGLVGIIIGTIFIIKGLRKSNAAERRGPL

DRB1*0401 (DR4w4) = biological target: T9, DRB1*0401 (DR4w4) (Homo sapiens, UniProt P01903+P01911, A100K/A169T/F76Y/I96L/K127E/L162R/M171V/N62H/P40V/Q125Y/R42H/S133A/S149N/S66Y/V115G/V209L/W38E); experiment: biochemical; format: binding
T9 construct: Epstein-Barr virus (EBV) transformed homozygous cell lines were used as sources; endogenous in cells; host or cells: PREISS (EBV-transformed homozygous B cell line)

DRB5*0101 (DR2w2a) = biological target: T10, DRB5*0101 (DR2w2a) (Homo sapiens, UniProt P01903+Q30154); experiment: biochemical; format: binding
T10 construct: Epstein-Barr virus (EBV) transformed homozygous cell lines were used as sources; endogenous in cells; host or cells: GM3107 (EBV-transformed homozygous B cell line)

DRB1*0701 (DR7) = biological target: T11, DRB1*0701 (DR7) (Homo sapiens, UniProt P01903+P01911, A100R/A102G/A103Q/D57E/D86V/E43K/F76Y/K127E/L162R/M171V/P40G/Q125H/Q99D/R33Q/R42Y/R54Q/S133A/S66F/T210M/V115G/Y107V/Y59L/Y89S); experiment: biochemical; format: binding
T11 construct: Epstein-Barr virus (EBV) transformed homozygous cell lines were used as sources; endogenous in cells; host or cells: PITOUT (EBV-transformed homozygous B cell line)

DRB1*1201 (DR5w12) = biological target: T12, DRB1*1201 (DR5w12) (Homo sapiens, UniProt P01903+P01911, A100R/A169T/D57E/D86V/F55L/H45Y/K41T/L162R/M171V/P40S/Q125H/Q178H/Q39Y/Q99D/R42G/S66L/T262R/V114A/V67L/W38E/Y59H/Y61H/Y89S); experiment: biochemical; format: binding
T12 construct: Epstein-Barr virus (EBV) transformed homozygous cell lines were used as sources; endogenous in cells; host or cells: Herluf (EBV-transformed homozygous B cell line)

[3] = Binding Capacity (IC 50% nM) Other Alleles DR9
[4] = read-out: Binding Capacity (IC 50% nM) Other Alleles DR4w15
[5] = Binding Capacity (IC 50% nM) Other Alleles DR2w2b
[6] = Binding Capacity (IC50% nM) DR8w2
[7] = read-out: Binding Capacity (IC 50% nM) Other Alleles DR8w2
[8] = Binding Capacity (IC 50% nM) DR1,4,7 DRB1
[9] = Binding Capacity (IC50% nM) DR5w11
[10] = read-out: Binding Capacity (IC 50% nM) Other Alleles DR5w11
[11] = read-out: Binding Capacity (IC 50% nM) DR1,4,7 DR4w4
[12] = Binding Capacity (IC50% nM) DR2w2a
[13] = read-out: Binding Capacity (IC 50% nM) Other Alleles DR2w2a
[14] = Binding Capacity (IC 50% nM) DR1,4,7 DR7
[15] = Binding Capacity (IC50% nM) DR5w12
[16] = read-out: Binding Capacity (IC 50% nM) Other Alleles DR5w12
[17] = Binding Capacity (IC50% nM) DR9
[18] = Binding Capacity (IC50% nM) DR4w15
[19] = Binding Capacity (IC50% nM) DR2w2b
[20] = Binding Capacity (IC50% nM) DR6w19
[21] = read-out: Binding Capacity (IC 50% nM) Other Alleles DR6w19
[22] = Binding Capacity (IC50% nM) DR4w4

Compound | IC50 (DRB1*0901 (DR9); [3]) [nM] | IC50 (DRB1*0405 (DR4w15); [4]) [nM] | IC50 (DRB1*1501 (DR2w2b); [5]) [nM] | IC50 (DRB1*0301 (DR3w17) [1]) [nM] | IC50 (DRB1*0301 (DR3w17) [2]) [nM] | IC50 (DRB1*0802 (DR8w2); [6]) [nM] | IC50 (DRB1*0802 (DR8w2); [7]) [nM] | IC50 (DRB1*0101 (DR1); [8]) [nM] | IC50 (DRB1*1101 (DR5w11); [9]) [nM] | IC50 (DRB1*1101 (DR5w11); [10]) [nM] | IC50 (DRB1*0401 (DR4w4); [11]) [nM] | IC50 (DRB5*0101 (DR2w2a); [12]) [nM] | IC50 (DRB5*0101 (DR2w2a); [13]) [nM] | IC50 (DRB1*0701 (DR7); [14]) [nM] | IC50 (DRB1*1201 (DR5w12); [15]) [nM] | IC50 (DRB1*1201 (DR5w12); [16]) [nM] | IC50 (DRB1*0901 (DR9); [17]) [nM] | IC50 (DRB1*0405 (DR4w15); [18]) [nM] | IC50 (DRB1*1501 (DR2w2b); [19]) [nM] | IC50 (DRB1*1302 (DR6w19); [20]) [nM] | also measured
CC(C)C[C@H](NC(=O)CNC(=O)[C@H](C)NC(=O)[C@@H](N)CC(C)C)C(=O)N[C@@H](CC(C)C)C(=O)NCC(=O)N[C@@H](CC(N)=O)C(=O)N[C@H](C(=O)N[C@@H](CO)C(=O)N[C@H](C(=O)N[C@H](C(=O)N[C@@H](CC(C)C)C(=O)N[C@@H](CC(C)C)C(=O)NCC(=O)NCC(=O)O)C(C)C)[C@@H](C)O)C(C)C [Peptide F107.10] | < 1000 | > 1000 | < 1000 | > 1000 | > 10000 | > 10000 | > 1000 | < 1000 | > 10000 | > 1000 | > 1000 | > 10000 | > 1000 | < 1000 | > 10000 | > 1000 |  |  |  |  | IC50 (DRB1*1302 (DR6w19); Binding Capacity (IC 50% nM) Other Alleles DR6w19): < 1000 nM
GPPTALRSFGFAFGYM [Peptide 1136.29] | < 1000 |  | < 1000 | > 1000 | > 10000 | 2970 | > 1000 | < 1000 | 6250 | > 1000 | > 1000 | 468 |  | < 1000 | 1000 |  | 183 | 745 | 1.1 | > 10000 | IC50 (DRB1*0405 (DR4w15); Binding Capacity (IC 50% nM) Other Alleles DR4w15): < 1000 nM; IC50 (DRB1*1302 (DR6w19); [21]): > 1000 nM; IC50 (DRB1*0101 (DR1); Binding Capacity (IC50% nM) DR1): 32 nM; IC50 (DRB1*0401 (DR4w4); [22]): 4330 nM; IC50 (DRB5*0101 (DR2w2a); Binding Capacity (IC 50% nM) Other Alleles DR2w2a): < 1000 nM; IC50 (DRB1*1201 (DR5w12); Binding Capacity (IC 50% nM) Other Alleles DR5w12): < 1000 nM
LWWSTMYLTHHYFVDL [Peptide 1136.46] |  | > 1000 |  | > 1000 | > 10000 | > 10000 | > 1000 | < 1000 | > 10000 | > 1000 |  | > 10000 | > 1000 |  | > 10000 | > 1000 | > 10000 | > 10000 | > 10000 | > 10000 | IC50 (DRB1*0901 (DR9); read-out: Binding Capacity (IC 50% nM) Other Alleles DR9): > 1000 nM; IC50 (DRB1*1501 (DR2w2b); read-out: Binding Capacity (IC 50% nM) Other Alleles DR2w2b): > 1000 nM; IC50 (DRB1*1302 (DR6w19); [21]): > 1000 nM; IC50 (DRB1*0401 (DR4w4); Binding Capacity (IC 50% nM) DR1,4,7 DR4w4): < 1000 nM; IC50 (DRB1*0401 (DR4w4); [22]): 985 nM; IC50 (DRB1*0701 (DR7); Binding Capacity (IC50% nM) DR7): 5810 nM; IC50 (DRB1*0701 (DR7); read-out: Binding Capacity (IC 50% nM) DR1,4,7 DR7): > 1000 nM

From US6413517B1, “Identification of broadly reactive DR restricted epitopes” (Epimmune, Inc., priority 1997, dated 2002)
